Experimental data from paper PMC7374640 (Nature structural & molecular biology, 2020).

Key:
[1] = molecular target: human insulin receptor, isoform B (hIR, IR-B) (human) (UniProt P06213)
[2] = cited from earlier work
insulin receptor = settings: cited from earlier work

Row | Substance | receptor affinity relative to native insulin (fold lower) (insulin receptor) | other results
1 | DOI with TyrB20 substitution (peptide) |  | bioactivity (insulin receptor activation assay), fold increase against DOI [1]: 5 fold
2 | HisA8 human insulin: human insulin with ThrA8 substituted by histidine (literature) |  | increase in potency on substitution of human insulin ThrA8 by histidine [2]: three-fold
3 | des-heptapeptide(B24-B30)-[GlyB23-α-carboxamide]insulin | ~ 500 fold | 
4 | des-hexapeptide(B25-B30)-[PheB24-α-carboxamide]insulin | ~ 20 fold | 
5 | des-pentapeptide(B26-B30)-[PheB25-α-carboxamide]insulin | native-like | 
